Laboratory results from patent US4728655A, “Sulfonamidines, process for the production thereof and pharmaceutical compositions containing the same” (Ferrer Internacional S.A., priority 1984, dated 1988).
Structures can show the parent of a compound that is named as a salt.

molecular target: T1, histamine H2-receptors (Rattus norvegicus, UniProt P25102); assay: blocking activity of histamine H2-receptors: antagonism of histamine-induced gastric acid secretion (perfused stomach, pH recording) in anesthetized rats; format: in vivo; conditions: iv, rapid i.v. injection (right femoral vein), histamine hydrochloride infusion 0.0552 mg/min/kg, ethyl carbamate anesthesia, male Sprague-Dawley rats
T1 construct: histamine H2 -receptors was tested in Sprague-Dawley male rats; from tissue; host or cells: stomach of the living anesthetized Sprague-Dawley rat (in vivo perfused stomach)
T1 sequence (P25102 whole entry, the tested form may be a part): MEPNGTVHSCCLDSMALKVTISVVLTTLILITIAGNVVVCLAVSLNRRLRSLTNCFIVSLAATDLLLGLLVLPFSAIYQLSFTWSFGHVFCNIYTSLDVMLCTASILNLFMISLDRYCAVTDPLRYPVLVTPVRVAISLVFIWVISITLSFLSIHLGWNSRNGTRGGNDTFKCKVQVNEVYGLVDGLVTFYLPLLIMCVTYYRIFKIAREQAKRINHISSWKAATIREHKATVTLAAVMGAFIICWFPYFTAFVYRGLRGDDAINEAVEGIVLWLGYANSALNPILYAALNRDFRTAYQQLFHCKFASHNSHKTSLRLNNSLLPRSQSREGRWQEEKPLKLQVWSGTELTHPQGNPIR
Method: The blocking qctivity of histamine H2 -receptors was tested in Sprague-Dawley male rats weighing 345±38 g. Animals which were subjected to a 24-hour hydric diet were tracheotomized under ethyl carbamate anesthesia (1 ml/100 g, 10% w/V i.p.). After cannulating the esophagus and stomach from duodenum, the gastric contents were drained. Then the esophageal cannual was connected to a peristaltic pump, under prior passage over a thermostatic batch at 37° C., and 1/800N sodium hydroxide solution in water flowed through. The cannula from the stomach was connected by a tube leading to a Ph-meter electrode, and the readings were graphically recorded. pH increase occurring by perfusion of the sodium hydroxide solution at 1.6 ml/min. rate is antagonized by continuous infusion of histamine hydrochloride through a catheter implanted in the right femoral vein (0.0552 mg/min/kg, 2 ml/hour). After calibrating the pH, test drugs are quickly injected into the right femoral vein. Under these conditions, the activities, expressed at ED50, of some compounds according to the present invention, are determined and set forth as follows, with cimetidine being employed for purposes of comparison: […]

| ED50 [µmol/kg] | Structure (SMILES) |
| --- | --- |
| 1.77 | NC(N)=Nc1nc(CSCCNC=NS(=O)(=O)c2ccccc2)cs1 [Ex. 2, hydrogen maleate, N-benzenesulphonyl-N'-[2-[[[2-[(aminoiminomethyl)amino]-4-thiazolyl]methyl]thio]ethyl]formamidine hydrogen maleate] |
| 0.7 | Cc1ccc(S(=O)(=O)N=CNCCSCc2csc(N=C(N)N)n2)cc1 [Ex. 1, hydrogen maleate, N-p-toluensulphonyl-N'-[2-[[[2-[(aminoiminomethyl)amino]-4-thiazolyl]methyl]thio]ethyl]formamidine hydrogen maleate] |

Second part, the compound before the results:

| Structure (SMILES) | ED50 [µmol/kg] |
| --- | --- |
| NC(N)=Nc1nc(CSCCNC=NS(=O)(=O)c2ccc(Cl)cc2)cs1 [Ex. 5, hydrogen maleate, N-p-chlorobenzenesulphonyl--N'-[2-[[[2-[(aminoiminomethyl)amino]-4-thiazolyl]methyl]thio]ethyl]formamidine hydrogen maleate] | 0.75 |
| CS(=O)(=O)N=CNCCSCc1csc(N=C(N)N)n1 [Ex. 3, hydrogen maleate, N-methansulphonyl-N'-[2-[[[2-[(aminoiminomethyl)amino]-4-thiazolyl]methyl]thio]ethyl]formamidine hydrogen maleate] | 1.12 |
| NC(N)=Nc1nc(CSCCNC=NS(=O)(=O)c2ccc([N+](=O)[O-])cc2)cs1 [Ex. 4, hydrogen maleate, N-p-nitrobenzenesulphonyl-N'-[2-[[[2-[(aminoiminomethyl)amino]-4-thiazolyl]methyl]thio]ethyl]formamidine hydrogen maleate] | 0.61 |
